Measured values as given in US10167257B2, “Indole derivatives for use in medicine” (IOmet Pharma Ltd., priority 2014, dated 2019).

Key:
IDO (SKOV-3 cells) = molecular target: T1, IDO (SKOV-3 cells) (Homo sapiens, UniProt P14902); experiment: IDO cell-based assay (SKOV-3, IFNγ-induced), kynurenine production; settings: SKOV-3 ovary adenocarcinoma cells, IFNγ 500 ng/ml, 500 μM L-Trp, 48 h, kynurenine by absorbance at 490 nm
T1 construct: This assay utilised cancer cells which expressed either TDO or IDO; host or cells: SKOV-3 ovary adenocarcinoma cells, IFNγ-induced
T1 sequence (P14902 whole entry): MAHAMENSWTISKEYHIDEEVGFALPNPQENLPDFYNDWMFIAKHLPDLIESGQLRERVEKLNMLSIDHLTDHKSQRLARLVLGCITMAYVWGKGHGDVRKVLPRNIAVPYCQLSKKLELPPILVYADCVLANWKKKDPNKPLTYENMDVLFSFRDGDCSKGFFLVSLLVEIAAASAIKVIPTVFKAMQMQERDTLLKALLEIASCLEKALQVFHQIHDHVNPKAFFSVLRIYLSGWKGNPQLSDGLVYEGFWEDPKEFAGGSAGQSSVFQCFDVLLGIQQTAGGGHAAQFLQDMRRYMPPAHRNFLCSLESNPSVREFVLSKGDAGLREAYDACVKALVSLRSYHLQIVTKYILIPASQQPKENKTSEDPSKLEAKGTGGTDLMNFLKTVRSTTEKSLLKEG
Text: (§1) Two different types of assay were employed: 1. A TDO and IDO biochemical coupled assay which utilised recombinantly produced and purified TDO and IDO enzymes in combination with the enzyme formamidase. This coupled enzyme system allowed conversion of N-formylkynurenine produced by TDO or IDO activity to kynurenine which was then quantified by fluorescence following addition of Erhlich's Reagent. 2. A cell-based assay for detecting the effect of test compounds on kynurenine production in two different cancer cell types. This assay utilised cancer cells which expressed either TDO or IDO and as such was used as a means of testing compound activity at these two enzymes in a cell-based context. The protocols for these are set out below.
(§2) A172 human glioblastoma (ATCC) were grown in DMEM+2 mM L-glutamine medium supplemented with 10% foetal bovine serum and SKOV-3 ovary adenocarcinoma (ATCC) cells were grown in McCoys 5A+L-glutamax medium supplemented with 15% foetal bovine serum. On the day of assay, cells were detached using trypsin-EDTA (0.25% v/v), re-suspended in assay media (RPMI 1640 phenol red free+L-glutamine supplemented with 10% dialysed foetal bovine serum). A172 cells were seeded at 30K cells per well and SKOV-3 cells at 40K cells per well into 96-well plates containing test samples/vehicle control together with 500 μM L-Trp. Cells were then incubated for 48 h at 37° C., 5% CO2. In SK-OV-3 cells, IFNγ was also added at 500 ng/ml for the 48 h incubation in order to induce expression of IDO. Plates were centrifuged and the supernatant was removed and incubated for 5 min in the presence of 1% Erhlich's reagent. Kynurenine levels were then quantified by measuring absorbance at 490 nm.

TDO (A172 cells) = molecular target: T2, TDO (A172 cells) (Homo sapiens, UniProt P48775); experiment: TDO cell-based assay (A172), kynurenine production; settings: A172 human glioblastoma cells, 500 μM L-Trp, 48 h, kynurenine by absorbance at 490 nm
T2 construct: This assay utilised cancer cells which expressed either TDO or IDO; host or cells: A172 human glioblastoma cells
T2 sequence (P48775 whole entry): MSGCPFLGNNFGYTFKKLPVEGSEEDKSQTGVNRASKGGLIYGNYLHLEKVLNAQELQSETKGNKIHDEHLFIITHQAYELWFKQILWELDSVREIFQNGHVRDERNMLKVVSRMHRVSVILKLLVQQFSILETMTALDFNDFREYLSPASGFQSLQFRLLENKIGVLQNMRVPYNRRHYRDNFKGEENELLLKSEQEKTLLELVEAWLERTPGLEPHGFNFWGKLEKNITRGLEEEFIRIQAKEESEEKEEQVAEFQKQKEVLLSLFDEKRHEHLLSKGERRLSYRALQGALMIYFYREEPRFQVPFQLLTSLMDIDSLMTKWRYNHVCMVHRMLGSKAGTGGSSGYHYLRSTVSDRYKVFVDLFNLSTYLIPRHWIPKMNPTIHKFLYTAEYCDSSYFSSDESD
Text: as §1, §2

SMILES | IDO cellular assay (SKOV3) pIC50 (IDO (SKOV-3 cells)) | TDO cellular assay (A172) pIC50 (TDO (A172 cells)) | IC50 (IDO (SKOV-3 cells); read-out: IDO cellular assay (SKOV3) pIC50 (converted)) | IC50 (TDO (A172 cells); read-out: TDO cellular assay (A172) pIC50 (converted))
C[C@@H](NC(=O)c1cc2ccc(Cl)cc2[nH]1)c1ccccc1 [Compound 47] | ++ (++ = pIC50 5.00-<5.50) | ++ (++ = pIC50 5.00-<5.50) | – | –
C[C@@H](NC(=O)c1cc2cc(Cl)ccc2[nH]1)c1ccccc1 [Compound 48] | – | – | ≤ 3.16 µM | 3.16 to 10 µM
C[C@H](NC(=O)c1cc2ccc(Cl)cc2[nH]1)c1ccccc1 [Compound 49] | ++ (++ = pIC50 5.00-<5.50) | + (+ = pIC50 4.50-<5.00) | – | –
C[C@H](NC(=O)c1cc2cc(Cl)ccc2[nH]1)c1ccccc1 [Compound 50] | +++ (+++ = pIC50 ≥5.50) | +++ (+++ = pIC50 ≥5.50) | – | –
O=C(Nc1cccc2ccccc12)c1cc2cc(F)ccc2[nH]1 [Compound 51] | +++ (+++ = pIC50 ≥5.50) | − (− = pIC50 <4.50) | – | –
O=C(NCc1cc2cc(F)ccc2[nH]1)c1ccccc1 [Compound 52] | + (+ = pIC50 4.50-<5.00) | + (+ = pIC50 4.50-<5.00) | – | –
C[C@@H](NC(=O)c1cc2c([nH]1)CCCC2)c1ccccc1 [Compound 53] | + (+ = pIC50 4.50-<5.00) | − (− = pIC50 <4.50) | – | –
CC(NC(=O)c1cc2cc(F)ccc2[nH]1)c1cccnc1 (stereo not drawn) [Compound 54] | + (+ = pIC50 4.50-<5.00) | − (− = pIC50 <4.50) | – | –
C[C@H](NC(=O)c1cc2c([nH]1)CCCC2)c1ccccc1 [Compound 55] | − (− = pIC50 <4.50) | + (+ = pIC50 4.50-<5.00) | – | –
C[C@H](NC(=O)c1cc2c(F)cccc2[nH]1)c1ccccc1 [Compound 56] | + (+ = pIC50 4.50-<5.00) | + (+ = pIC50 4.50-<5.00) | – | –
O=S(=O)(NCc1cc2cc(F)ccc2[nH]1)c1ccccc1 [Compound 57] | − (− = pIC50 <4.50) | + (+ = pIC50 4.50-<5.00) | – | –
CC(NC(=O)c1cc2cc(F)ccc2[nH]1)c1ccncc1 (stereo not drawn) [Compound 58] | ++ (++ = pIC50 5.00-<5.50) | − (− = pIC50 <4.50) | – | –
C[C@@H](c1ccccc1)N(C)C(=O)c1cc2cc(F)ccc2[nH]1 [Compound 59] | + (+ = pIC50 4.50-<5.00) | − (− = pIC50 <4.50) | – | –
Cc1c(C(=O)N[C@@H](C)c2ccccc2)[nH]c2ccc(F)cc12 [Compound 60] | + (+ = pIC50 4.50-<5.00) | + (+ = pIC50 4.50-<5.00) | – | –
C[C@@H](NC(=O)c1cc2cccc(F)c2[nH]1)c1ccccc1 [Compound 61] | +++ (+++ = pIC50 ≥5.50) | +++ (+++ = pIC50 ≥5.50) | – | –
C[C@@H](NC(=O)c1cc2c(F)cccc2[nH]1)c1ccccc1 [Compound 62] | +++ (+++ = pIC50 ≥5.50) | +++ (+++ = pIC50 ≥5.50) | – | –
C[C@H](NC(=O)c1cc2cccc(F)c2[nH]1)c1ccccc1 [Compound 63] | + (+ = pIC50 4.50-<5.00) | + (+ = pIC50 4.50-<5.00) | – | –
O=C(Nc1cccc2ncccc12)c1cc2ccc(F)cc2[nH]1 [Compound 64] | ++ (++ = pIC50 5.00-<5.50) | ++ (++ = pIC50 5.00-<5.50) | – | –
O=C(Nc1cccc2ccccc12)c1cc2ccc(F)cc2[nH]1 [Compound 65] | +++ (+++ = pIC50 ≥5.50) | − (− = pIC50 <4.50) | – | –
O=C(NC1CCCc2ccccc21)c1cc2ccccc2[nH]1 (stereo not drawn) [Compound 66] | ++ (++ = pIC50 5.00-<5.50) | − (− = pIC50 <4.50) | – | –
CC(C)NC(=O)c1cc2cc(Cl)ccc2[nH]1 [Compound 67] | + (+ = pIC50 4.50-<5.00) | ++ (++ = pIC50 5.00-<5.50) | – | –
